Converted amounts (≈) assume the structure as drawn. Where only a bound is given, the exact number is not on record here.

The test system of this experiment is S. aureus ATCC25923. Nature of the experiment: S. aureus MIC80 determination, broth microdilution (CLSI) in CAMHB. Type of experiment: cell-based. The note with it: Staphylococcus aureus, ATCC25923; Table 1; S. aureus ATCC 25923; growth inhibition ≥80% vs vehicle, 16-24 h; read-out: ATCC 25923 MIC80. As to the method: S. Aureus MIC80 determinations in S. aureus ATCC25923 or in multidrug-resistant strains AR215, AR217 and AR255. MIC80's were determined by the broth microdilution method recommended by the Clinical and Laboratory Standards Institute (CLSI) in Cation-adjusted Mueller-Hinton broth (CAMHB). (Cao et al., 2018). In the preliminary screening, three compound concentrations were used: 5.8, 20.4, and 71.4 μM; for quantitative MIC80 measurements, a 1.5-fold dilution series of the compounds was prepared in CAMHB. Overnight bacterial culture was added to the diluted compounds in a 96-well plate after adjusting the bacterial concentration to achieve a 5×10^5 CFU/mL final concentration. After 16-24 h incubation at 35±2° C., the plates were read at 600 nm in a microplate reader. The MIC80 was defined as the concentration of an antibacterial agent that inhibited bacteria growth ≥80% compared to vehicle-treated control cultures. All values were determined at least twice independently, and the average number is reported.
On the technique in general: In broth dilution the organism is exposed to a series of concentrations in liquid medium.
Consider `Cc1cc(Cl)cc2sc(N(CCCn3ccnc3)C(=O)C3(C)CC3)nc12` [Example 18, N-(3-(1H-imidazol-1-yl)propyl)-N-(6-chloro-4-methylbenzo[d]thiazol-2-yl)-1-methylcyclopropanecarboxamide], for which the MIC80 turned out to be 5.9 µM (≈ 2.29 µg/mL).
In the case of `Cc1cc(Cl)cc2sc(N(CCCn3ccnc3)C(=O)c3ccc[nH]3)nc12` [Example 19, N-(3-(1H-imidazol-1-yl)propyl)-N-(6-chloro-4-methylbenzo[d]thiazol-2-yl)-1H-pyrrole-2-carboxamide], the MIC80 was 1.3 µM (≈ 0.52 µg/mL).
Next, `CSCc1ccc(C(=O)N(CCCn2ccnc2)c2nc3c(C)cc(Cl)cc3s2)o1` [Example 20, N-(3-(1H-imidazol-1-yl)propyl)-N-(6-chloro-4-methylbenzo[d]thiazol-2-yl)-5-((methylthio)methyl)furan-2-carboxamide]: 2.9 µM (≈ 1.34 µg/mL).
For `Cc1cc(Cl)cc2sc(N(CCCn3ccnc3)C(=O)[C@H](Cc3ccccc3)NC(=O)OC(C)(C)C)nc12` [Example 21, (S)-tert-butyl (1-((3-(1H-imidazol-1-yl)propyl)(6-chloro-4-methylbenzo[d]thiazol-2-yl)amino)-1-oxo-3-phenylpropan-2-yl)carbamate], the MIC80 was 14.8 µM (≈ 8.2 µg/mL).
The figure for `Cc1cc(Cl)cc2sc(N(CCCn3ccnc3)S(=O)(=O)c3cccs3)nc12` [Example 22, N-(3-(1H-imidazol-1-yl)propyl)-N-(6-chloro-4-methylbenzo[d]thiazol-2-yl)thiophene-2-sulfonamide] is 3.9 µM (≈ 1.77 µg/mL); for `Cc1cc(Cl)cc2sc(N(CCCn3ccnc3)S(=O)(=O)c3ccccc3)nc12` [Example 23, N-(3-(1H-imidazol-1-yl)propyl)-N-(6-chloro-4-methylbenzo[d]thiazol-2-yl)benzenesulfonamide] it is 3.9 µM (≈ 1.74 µg/mL).
On to `Cc1cc(Cl)cc2sc(N(CCCn3ccnc3)S(=O)(=O)C3CCCCC3)nc12` [Example 24, N-(3-(1H-imidazol-1-yl)propyl)-N-(6-chloro-4-methylbenzo[d]thiazol-2-yl)cyclohexanesulfonamide], for which the MIC80 stood at 13.2 µM (≈ 5.98 µg/mL).
On to `Cc1cc(Cl)cc2sc(N(CCCn3ccnc3)S(=O)(=O)c3ccco3)nc12` [Example 25, N-(3-(1H-imidazol-1-yl)propyl)-N-(6-chloro-4-methylbenzo[d]thiazol-2-yl)furan-2-sulfonamide], for which the MIC80 is 8.8 µM (≈ 3.85 µg/mL).
Regarding `Cc1cc(Cl)cc2sc(N(CCCn3ccnc3)Cc3ccccc3)nc12` [Example 26, N-(3-(1H-imidazol-1-yl)propyl)-N-benzyl-6-chloro-4-methylbenzo[d]thiazol-2-amine], the MIC80 came out at 3.9 µM (≈ 1.55 µg/mL).
`Cc1cc(Cl)cc2sc(N(CCCn3ccnc3)CC3CC3)nc12` [Example 27, N-(3-(1H-imidazol-1-yl)propyl)-6-chloro-N-(cyclopropylmethyl)-4-methylbenzo[d]thiazol-2-amine]: the MIC80 came to 6.6 µM (≈ 2.38 µg/mL).
With `Cc1cc(Cl)cc2sc(N(CCCn3ccnc3)CCCn3ccnc3)nc12` [Example 28, N,N-bis(3-(1H-imidazol-1-yl)propyl)-6-chloro-4-methylbenzo[d]thiazol-2-amine], the MIC80 turned out to be 5.9 µM (≈ 2.45 µg/mL).
For `Cc1cc(Cl)cc2sc(N(CCCn3cc[n+](C)c3)C(=O)c3ccco3)nc12` [Example 29, 1-(3-(N-(6-chloro-4-methylbenzo[d]thiazol-2-yl)furan-2-carboxamido)propyl)-3-methyl-1H-imidazol-3-ium], the MIC80 was determined as 13.2 µM.
Turning to `Cc1cc(Cl)cc2sc(N3CCNCC3)nc12` [Example 30, 6-chloro-4-methyl-2-(piperazin-1-yl)-1,3-benzothiazole], the MIC80 was 100 µM (≈ 26.8 µg/mL).
`CC(=O)N1CCN(c2nc3c(C)cc(Cl)cc3s2)CC1` [Example 31, 1-(4-(6-chloro-4-methylbenzo[d]thiazol-2-yl)piperazin-1-yl)ethan-1-one]: the MIC80 is more than 100 µM.
The figure for `Cc1cc(Cl)cc2sc(N3CCC(O)CC3)nc12` [Example 32, 1-(6-chloro-4-methylbenzo[d]thiazol-2-yl)piperidin-4-ol] is more than 100 µM; for `Cc1cc(Cl)cc2sc(N3CCC(N)CC3)nc12` [Example 33, 1-(6-chloro-4-methyl-1,3-benzothiazol-2-yl)piperidin-4-amine] it is 66.7 µM (≈ 18.8 µg/mL).
Next, `Cc1cc(Cl)cc2sc(N3CCC(CN)CC3)nc12` [Example 34]: 44.4 µM (≈ 13.1 µg/mL); `Cc1cc(Cl)cc2sc(N3CCCC(Cn4ccnc4)C3)nc12` (centres unmarked) [Example 35, 6-chloro-2-{3-[(1H-imidazol-1-yl)methyl]piperidin-1-yl}-4-methyl-1,3-benzothiazole]: 66.7 µM (≈ 23.1 µg/mL).
Consider `Cc1cc(Cl)cc2sc(N(CCCn3ccnc3)C(=O)CN)nc12` [Example 36, 2-amino-N-(6-chloro-4-methyl-1,3-benzothiazol-2-yl)-N-[3-(1H-imidazol-1-yl)propyl]acetamide], for which the MIC80 is more than 100 µM.
The figure for `Cc1cc(Cl)cc2sc(N(CC3CCNCC3)C(=O)C3CCC3)nc12` [Example 37, N-(6-chloro-4-methylbenzo[d]thiazol-2-yl)-N-(piperidin-4-ylmethyl)cyclobutanecarboxamide] is 19.8 µM (≈ 7.48 µg/mL); for `Cc1cc(Cl)cc2sc(N(CC3CCN(C)CC3)C(=O)C3CCC3)nc12` [Example 38, N-(6-chloro-4-methyl-1,3-benzothiazol-2-yl)-N-[(1-methylpiperidin-4-yl)methyl]cyclobutanecarboxamide] it is more than 100 µM.
`Cc1cc(Cl)cc2sc(N(CC3CCNCC3)C(=O)C3CC3)nc12` [Example 39]: the MIC80 is 19.8 µM (≈ 7.21 µg/mL).
On to `Cc1cc(Cl)cc2sc(N(CC3CCNC3)C(=O)C3CCC3)nc12` (centres unmarked) [Example 40, N-(6-chloro-4-methyl-1,3-benzothiazol-2-yl)-N-[(pyrrolidin-3-yl)methyl]cyclobutanecarboxamide], for which the MIC80 stood at 29.6 µM (≈ 10.8 µg/mL).
For `Cc1cc(Cl)cc2sc(N(CC3CCNC3)C(=O)C3CC3)nc12` (centres unmarked) [Example 41, N-(6-chloro-4-methylbenzo[d]thiazol-2-yl)-N-(pyrrolidin-3-ylmethyl)cyclopropanecarboxamide], the MIC80 is 44.4 µM (≈ 15.5 µg/mL).
On to `Cc1cc(Cl)cc2sc(N(CC3CCCNC3)C(=O)C3CC3)nc12` (centres unmarked) [Example 42, N-(6-chloro-4-methyl-1,3-benzothiazol-2-yl)-N-[(piperidin-3-yl)methyl]cyclopropanecarboxamide], for which the MIC80 was 66.7 µM (≈ 24.3 µg/mL).
In the case of `Cc1cc(Cl)cc2sc(N(CCC3CCNCC3)C(=O)C3CC3)nc12` [Example 43, N-(6-chloro-4-methyl-1,3-benzothiazol-2-yl)-N-[2-(piperidin-4-yl)ethyl]cyclopropanecarboxamide], the MIC80 came out at 100 µM (≈ 37.8 µg/mL).
For `Cc1cc(Cl)cc2sc(N(CCCn3cccc3)C(=O)c3ccco3)nc12` [Example 44, N-(6-chloro-4-methyl-1,3-benzothiazol-2-yl)-N-[3-(1H-pyrrol-1-yl)propyl]furan-2-carboxamide], the MIC80 was more than 100 µM.
As for `Cc1cc(Cl)cc2sc(N(C[C@H]3CC[C@H](N)CC3)C(=O)C3CC3)nc12` [Example 45, N-(6-chloro-4-methyl-1,3-benzothiazol-2-yl)-N-{[(1r,4r)-4-aminocyclohexyl]methyl}cyclopropanecarboxamide], the MIC80 stood at 19.8 µM (≈ 7.48 µg/mL).
In the case of `NCc1cccc2sc(N(CCCn3ccnc3)C(=O)c3ccco3)nc12` [Example 46, N-[4-(aminomethyl)-1,3-benzothiazol-2-yl]-N-[3-(1H-imidazol-1-yl)propyl]furan-2-carboxamide], the MIC80 was more than 100 µM.

A word on the MIC80: it is an inhibitory concentration at the 80% level, which refers to growth in some studies and to a panel of isolates in others.

These data come from patent US12570647B2 (Saint Louis University, priority 2021, dated 2026).
